Test results published in patent publication US11299760B2 (Amgen Inc., priority 2013, dated 2022).

Key:
[1] = system: MAb C producing cells; assay: GM130 immunofluorescence microscopy of Golgi; assay type: cell-based, Chinese hamster; settings: day 10; increasing monensin culminating at 100 nM from days 7-10
Protocol: (§1) On day 10, cell pellets were washed once with cold PBS and fixed in 4% paraformaldehyde for 10 minutes on ice. Cells were then washed once in again in cold PBS and stored at 4° C. until they were immunofluorescently stained as described below
(§2) Monensin is known to cause gross changes in Golgi architecture characterized by swollen and fragmented cisternae. The structure of the Golgi of CHO production cell lines after monensin treatment was analyzed using a panel of five different commercially available antibodies against various Golgi proteins with a passaging culture of recombinant cells producing MAb A using immunofluorescence microscopy.
(§3) Next, day 10 control and monensin-treated mock perfusion cultures of MAb A producing cells and MAb C producing cells were subjected to immunofluorescence microscopy using GM130 antibody. Paraformaldehyde fixed cell pellets were permeablized with 0.1% TritonX-100 made in PBS. Pellets were washed with PBSA (0.5% BSA in PBS) and incubated with GM130 antibody (BD Biosciences, San Jose, Calif.) diluted 1:50 in PBSA. Cells were washed thrice with PBSA and incubated with Alexa 488 conjugated mouse secondary antibody (Invitrogen, Grand Island, N.Y.) diluted 1:1000 in PBSA. […] Images were captured using Zeiss 510 microscope (Carl Zeiss, Inc., Jena, Germany) with 63× water immersion lens and analyzed using LSM image browser software.

[2] = system: MAb A producing cells; assay: GM130 immunofluorescence microscopy of Golgi; assay type: cell-based, Chinese hamster; settings: day 10 mock perfusion cultures; monensin-treated vs control
Protocol: as §1, §2, §3

[3] = system: recombinant cell line producing MAb E; assay: ATF bioreactors, high mannose analysis (RP-HPLC/MS); assay type: cell-based
Protocol: (§4) The applicability of using monensin to modulate high mannose levels in a large scale, controlled production setting was evaluated using a recombinant cell line producing MAb E in alternating tangential flow (ATF) bioreactors. MAb E cells grown in growth medium for the seed train were used to inoculate the N-1 bioreactor at 6×10^5 cells/ml in growth medium. The cells from N-1 bioreactor were then used to inoculate three, 2 L production bioreactors (N) at 7.5×10^5 cells/ml in base perfusion medium (referred to as control, Ra, and Rb bioreactors).
(§5) The production bioreactors were grown for 20 days at pH 7.00, 36° C., 30% DO and 400 rpm agitation. These production tanks were run with the ATF system starting on day 3 with 0.5 vol/day perfusion rate, which was increased to 0.6 vol/day, 0.8352 vol/day and 1 vol/day on day 6, 7 and 8, respectively. Glucose levels were maintained separately at 5 g/L since the perfusion medium was prepared without glucose.
Antifoam was also added into the tank as needed, while 1M Sodium Carbonate was used to maintain pH at the desired setpoint. Daily tank samples were collected for the measurement of various cell culture parameters as well as for the titer and high mannose analyses.
Sixty micrograms of daily MAb E samples collected from ATF bioreactors were digested into the Fc/2 and Fab′2 with 60 units of the IdeS enzyme (fabRICATOR, Genovis, Lund, Sweden) in 50 mM Sodium Phosphate, 150 mM NaCl, pH 6.6 with incubation in a 37° C. water bath for 30 minutes. The digested samples were then reduced in 4M Guanidine Hydrochloride 50 mM Tris, pH 8.3 with 50 mM DTT followed by incubation in a 55° C. heat block for 10 minutes resulting in reduction to Fc/2, LC and Fd.
Following digestion and reduction, samples were analyzed immediately by RP-HPLC/MS.
Analysis was performed using Waters Acquity Ultra-Performance liquid chromatography (UPLC) system (Waters, Milford, Mass.) coupled to an Agilent MST Time of Flight (TOF) mass spectrometer (Agilent Technologies, Santa Clara, Calif.). The digested and reduced samples were separated on a reversed-phased Waters BEH Phenyl column (1.7 micron particle size, 2.1×150 mm; Waters, Milford, Mass.) maintained at 80° C. […]
Five micrograms of each sample was injected and eluted at a flow rate of 0.5 mL/min with the following gradient: 30% B was held for 2.5 minutes followed by a gradient from 30% to 45% B over a duration of 5 minutes, followed by a gradient from 45% to 100% B over 0.5 minutes; B was held at 100% for 4 minutes, followed by a gradient of 100% to 30% B over 0.1 minutes, and then held at 30% B for the remaining 2.9 minutes. The UV elution was also monitored at a wavelength of 220 nm. […] Ion intensities of the deconvoluted peaks were used for quantification of the glycan species.

[4] = system: recombinant cell line producing MAb E; assay: ATF bioreactors, cell culture performance; assay type: cell-based; settings: 500 nM monensin for ~22 hours from day 8; ATF reactors Ra, Rb
Protocol: Cells in the control reactor (black circles) were grown in the absence of monensin. Viable cell density is illustrated in FIG. 1. FIG. 2 presents the results of viability analysis. […] Daily spent medium samples were also submitted for titer analysis.
as §4, §5
Antifoam was also added into the tank as needed, while 1M Sodium Carbonate was used to maintain pH at the desired setpoint. […]

[5] = 500 nM monensin for ~22 hours from day 8, MAb E

CC[C@@]1([C@@H]2O[C@@H]([C@H]3O[C@@](O)(CO)[C@H](C)C[C@@H]3C)C[C@@H]2C)CC[C@H]([C@]2(C)CC[C@]3(C[C@H](O)[C@@H](C)[C@@H]([C@@H](C)[C@@H](OC)[C@H](C)C(=O)O)O3)O2)O1 [monensin]
Golgi morphology (GM130 staining) [1]: punctate distribution of GM130 protein
Golgi morphology (GM130 staining) [2]: No morphological difference
high mannose levels, initial spike [3, 5]: 35-50%
increase in the levels of high mannose glycans on the recombinant antibodies [3, 5]: 9-10 fold
high mannose levels on the day of the harvest ([3]; after flushing out of monensin by perfusion, MAb E): 15-17%
produced antibodies containing high mannose glycans at peak ([3]; day 10, 500 nM monensin for ~22 hours from day 8, from predicted and measured levels): 89%
impact on cell growth and viability [4]: slight negative impact on cell growth and viability
titers compared to the control tank [4]: marginally improved titers
